According to US5045319A, “Transdermal dosage unit, system and process” (Rutgers, The State University of New Jersey, priority 1988, dated 1991):

How the values were obtained:
[1] = in-vitro skin permeation of propranolol from TMAD (Valia-Chien diffusion cell, with skin); format: in vitro ADME; conditions: delivered from TMAD
Procedure: (§1) Both in-vitro release and skin permeation studies can then be conducted by mounting the device (with or without skin) onto a Valia-Chien diffusion cell at 37° C. In-vivo studies can be conducted by placing the patch on the pinna (ear) of a rabbit and taking blood samples which can be analyzed for propranolol (results on the attached sheets).
In this case, the enhancer laminate would be fabricated by combining an aliphatic alcohol with adhesive in a 1.25:10 ratio. The enhancer laminate would then be solvent cast and laminated as in Example 1. The devices can then be evaluated in-vitro and in-vivo. (results shown on the attached sheets).

[2] = in-vivo plasma propranolol after topical application of TMAD on inner pinna of rabbit; conditions: FIG. A-7, rabbits
Procedure: as §1

[3] = in-vitro release of propranolol from multilaminate transdermal device (Valia-Chien diffusion cell, without skin); format: physicochemical; conditions: for RELEASE RATE OF PROPRANOLOL: Example 2, SPE-m-TAD
Procedure: as §1
The release rate of drug from the SPE-m-TAD can be changed by the alteration of the drug load in the outer drug laminate.

CC(C)NCC(O)COc1cccc2ccccc12 (racemic) [propranolol, Propranolol]
enhancement in skin permeation rate of propranolol by alkyl alcohols ([1]; FIG. A-4, dependence on alkyl chain length n of alcohols): The rate of skin permeation increases as increasing the alkyl chain length of the alcohols and reaches the maximum level at n=12~14
enhancement in skin permeation rate of propranolol by alkanoic acids ([1]; FIG. A-5, dependence on alkyl chain length n of acids): The rate of skin permeation shows a sinoidal dependence on the alkyl chain length of the acids and with the maximum rates at n=3 and 16
enhancement in skin permeation rate of propranolol by esters of Lauric Acid (n=12) ([1]; FIG. A-6, dependence on alkyl chain length n of esters): The rate of skin permeation increases first and then levels off as increasging the alkyl chain length of the esters and reaches the maximum level at n=2
plasma concentration profiles of propranolol ([2]; 24-hr topical application of TMAD on inner pinna ear): long-acting plasma concentration profiles
systemic bioavailability of propranolol, as shown by plasma levels ([2]; 24-hr topical application of TMAD with various skin permeation enhancers): improved the systemic bioavailability, as shown by elevated constant plasma levels
RELEASE RATE OF PROPRANOLOL ([3]; propranolol drug load in outer drug laminate 3%): 48.1 ug cm^-2 hr^-1
RELEASE RATE OF PROPRANOLOL ([3]; propranolol drug load in outer drug laminate 5%): 49.9 ug cm^-2 hr^-1
RELEASE RATE OF PROPRANOLOL ([3]; propranolol drug load in outer drug laminate 7%): 52.2 ug cm^-2 hr^-1
RELEASE RATE OF PROPRANOLOL ([3]; propranolol drug load in outer drug laminate 20%): 59.1 ug cm^-2 hr^-1
drug release kinetics ([3]; FIG. A-2, only extremely small particle size (1.5 μm) propranolol crystals in outer laminate layer): Device-controlled zero-order drug release kinetics was achieved
zero-order release profile of propranolol from TMAD, effect of skin permeation enhancers ([3]; FIG. A-3, various skin permeation enhancers in contact adhesive polymer coating): did not affect the zero-order release profile
overall release of propranolol from the device ([3]; SPE-m-TAD, decreasing drug load in outer drug laminate, particle size 1.5 microns): can be reduced, while still maintaining zero-order release kinetics
